Experimental data from US7678788B2, “Diazabicyclic aryl derivatives” (Neurosearch A/S, priority 2003, dated 2010).

What follows are molecules tested against T1, α7-subtype of nicotinic receptors (Rattus norvegicus, UniProt Q05941) (assay: In vitro inhibition of 3H-α-bungarotoxine binding in rat brain). Conditions: rat cerebral cortex homogenate; 3H-α-bungarotoxine 2 nM; 2 hours at 37° C.
T1 construct: Cerebral cortices from male Wistar rats (150-250 g) are homogenised; from tissue; host or cells: rat cerebral cortex membrane homogenate
T1 sequence (Q05941 23-502): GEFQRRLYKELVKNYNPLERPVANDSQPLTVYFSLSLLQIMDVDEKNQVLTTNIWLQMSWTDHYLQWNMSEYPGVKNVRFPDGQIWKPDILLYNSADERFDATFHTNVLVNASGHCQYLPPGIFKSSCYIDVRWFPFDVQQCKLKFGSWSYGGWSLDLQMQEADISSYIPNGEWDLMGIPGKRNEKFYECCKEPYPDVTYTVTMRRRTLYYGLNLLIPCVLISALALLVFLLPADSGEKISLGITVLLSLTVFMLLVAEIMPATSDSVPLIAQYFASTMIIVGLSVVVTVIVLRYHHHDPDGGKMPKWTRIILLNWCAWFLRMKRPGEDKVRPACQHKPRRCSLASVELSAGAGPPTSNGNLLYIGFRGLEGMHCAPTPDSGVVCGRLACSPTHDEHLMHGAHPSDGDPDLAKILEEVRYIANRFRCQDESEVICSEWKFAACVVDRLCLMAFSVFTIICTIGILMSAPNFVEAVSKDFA

In order of rising IC50:
1. O=CNc1ccc(-c2ccc(C(=O)N3CCN4CCC3CC4)o2)cc1 [Compound F1, (1,4-Diaza-bicyclo[3.2.2]-non-4-yl)-5-(4-formylaminophenyl)-furan-2-yl-methanone]  17 nM
2. O=C(c1ccc(-c2cccc(C(F)(F)F)c2)o1)N1CCN2CCC1CC2 [Compound A5, (1,4-Diaza-bicyclo[3.2.2]-non-4-yl)-5-(3-trifluoromethylphenyl)-furan-2-yl-methanone]  51 nM
3. Nc1cccc(-c2ccc(C(=O)N3CCN4CCC3CC4)o2)c1 [Compound C3, (1,4-Diaza-bicyclo[3.2.2]-non-4-yl)-5-(3-aminophenyl)-furan-2-yl-methanone]  80 nM
4. O=C(c1ccco1)N1CCN2CCC1CC2 [Compound A1, (1,4-Diaza-bicyclo[3.2.2]-non-4-yl)-furan-2-yl-methanone]  540 nM
